According to patent publication US9132291B2, “Water-in-oil emulsion compositions containing gellan gum for topical delivery of active ingredients to the skin or mucosa” (DFB Technology, Ltd., priority 2010, dated 2015):
Structures can show the parent of a compound that is named as a salt.

Assay: In-Vitro Release Test (Franz Cell diffusion apparatus, 0.45 um Durapore HVLP membrane)
Format: physicochemical
Conditions: 0.5-6 hours at 35° C.
Description: A 0.45 um Durapore HVLP membrane was used between the donor and receptor compartments. The receptor fluid used for analysis of lidocaine HCl was 0.2M NaH2PO4/EtOH/SDS (69/30/1). The receptor fluid used for analysis of metronidazole was 600 mL Ethanol (USP) and 400 mL Phosphate Buffer (1.3 g Na2HPO4 and 1.5 g KH2PO4). The receptor fluid used for analysis of allantoin was 10 mM KH2PO4 buffer (pH=4.7). The sampling of the receptor fluid was performed at 0.5, 1, 2, 4 and 6 hours at 35° C. The concentration of the released actives in the collected samples of the receptor fluid was determined by HPLC analysis. The HPLC mobile phase used for analysis of lidocaine HCl was 0.2M NaH2PO4/EtOH/SDS (69/30/1). The HPLC mobile phase used for analysis of metronidazole was 600 mL Ethanol (USP) and 400 mL Phosphate Buffer (1.3 g Na2HPO4 and 1.5 g KH2PO4). The HPLC mobile phase used for analysis of allantoin was ACN/Water (90/10).

In the case of `NC(=O)NC1NC(=O)NC1=O` (stereo not drawn) [allantoin, Allantoin], the “rate of release of allantoin” value (Formulas D, E, F (0%, 0.45%, 0.75% gellan gum; 0.1% allantoin) W/O emulsion, receptor fluid 10 mM KH2PO4 buffer pH 4.7, FIG. 3 and FIG. 4) was “increased as the concentration of gellan gum increased”.

With `CCN(CC)CC(=O)Nc1c(C)cccc1C` [lidocaine HCl, Lidocaine HCl] the “rate of release of lidocaine HCl” value (Formulas G, H, I (0%, 0.45%, 0.75% gellan gum; 2.0% lidocaine HCl) W/O emulsion, receptor fluid 0.2M NaH2PO4/EtOH/SDS (69/30/1), FIG. 5 and FIG. 6) was “increased as the concentration of gellan gum increased”.

For `Cc1ncc([N+](=O)[O-])n1CCO` [metronidazole, Metronidazole], the “rate of release of metronidazole” value (Formulas A, B, C (0%, 0.45%, 0.75% gellan gum; 0.75% metronidazole) W/O emulsion, receptor fluid ethanol/phosphate buffer, FIG. 1 and FIG. 2) was “increased as the concentration of gellan gum increased”.
